{"source": "patent US9125913B2", "about": "“Bcl-2-selective apoptosis-inducing agents for the treatment of cancer and immune diseases” (AbbVie Inc., priority 2008, dated 2015)", "data": [{"test_system": "GST-Bcl-2", "assay": "TR-FRET binding assay, Bcl-2", "settings": "TR-FRET Ki values", "summary_of_the_method": "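Compounds serially diluted in DMSO from 50 μM (2× starting concentration, 10% DMSO), mixed with GST-tagged protein, F-Bak peptide probe and Tb-labeled antibody, incubated 3 h at room temperature.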", "values": [{"smiles": "O=C(NS(=O)(=O)c1ccc(NCC2CCOCC2)c([N+](=O)[O-])c1)c1ccc(N2CCN(Cc3ccc(C(F)(F)F)cc3-c3ccc(Cl)cc3)CC2)cc1Oc1ccc2[nH]ccc2c1", "note": "[EXAMPLE 339, 4-(4-{[4′-chloro-5-(trifluoromethyl)-1,1′-biphenyl-2-yl]methyl}piperazin-1-yl)-2-(1H-indol-5-yloxy)-N-({3-nitro-4-[(tetrahydro-2H-pyran-4-ylmethyl)amino]phenyl}sulfonyl)benzamide]", "Binding selectivity ratio (Bcl-XL Ki/Bcl-2 Ki)": ">46.7"}, {"smiles": "CC1(C)CCC(CN2CCN(c3ccc(C(=O)NS(=O)(=O)c4cnc(OCC5CCOC5)c(Cl)c4)c(Oc4cccc5[nH]ncc45)c3)CC2)=C(c2ccc(Cl)cc2)C1", "note": "(centres unmarked) [EXAMPLE 420, 4-(4-{[2-(4-chlorophenyl)-4,4-dimethylcyclohex-1-en-1-yl]methyl}piperazin-1-yl)-N-{[5-chloro-6-(tetrahydrofuran-3-ylmethoxy)pyridin-3-yl]sulfonyl}-2-(1H-indazol-4-yloxy)benzamide]", "Binding selectivity ratio (Bcl-XL Ki/Bcl-2 Ki)": 1153}, {"smiles": "CN1CCC(Nc2ccc(S(=O)(=O)NC(=O)c3ccc(N4CCN(Cc5cc(OCCO)ccc5-c5ccc(Cl)cc5)CC4)cc3Oc3cccc4[nH]ccc34)cc2[N+](=O)[O-])CC1", "note": "[EXAMPLE 221, 4-(4-{[4′-chloro-4-(2-hydroxyethoxy)-1,1′-biphenyl-2-yl]methyl}piperazin-1-yl)-2-(1H-indol-4-yloxy)-N-({4-[(1-methylpiperidin-4-yl)amino]-3-nitrophenyl}sulfonyl)benzamide]", "Binding selectivity ratio (Bcl-XL Ki/Bcl-2 Ki)": 3005.2}, {"smiles": "CN(C)CC(=O)N1CCO[C@@H](CNc2ccc(S(=O)(=O)NC(=O)c3ccc(N4CCN(CC5=C(c6ccc(Cl)cc6)CC(C)(C)CC5)CC4)cc3Oc3cccc4[nH]cnc34)cc2[N+](=O)[O-])C1", "note": "[EXAMPLE 438, 2-(1H-benzimidazol-4-yloxy)-4-(4-{[2-(4-chlorophenyl)-4,4-dimethylcyclohex-1-en-1-yl]methyl}piperazin-1-yl)-N-{[4-({[(2S)-4-(N,N-dimethylglycyl)morpholin-2-yl]methyl}amino)-3-nitrophenyl]sulfonyl}benzamide]", "Binding selectivity ratio (Bcl-XL Ki/Bcl-2 Ki)": 34.5}, {"smiles": "CN1CCC(Nc2ccc(S(=O)(=O)NC(=O)c3ccc(N4CCN(CC5=C(c6ccc(Cl)cc6)CC(C)(C)CC5)CC4)cc3Nc3cccnc3)cc2[N+](=O)[O-])CC1", "note": "[EXAMPLE 396, 4-(4-{[2-(4-chlorophenyl)-4,4-dimethylcyclohex-1-en-1-yl]methyl}piperazin-1-yl)-N-({4-[(1-methylpiperidin-4-yl)amino]-3-nitrophenyl}sulfonyl)-2-(pyridin-3-ylamino)benzamide]", "Binding selectivity ratio (Bcl-XL Ki/Bcl-2 Ki)": ">5706"}, {"smiles": "O=C(NS(=O)(=O)c1ccc(NCCCN2CCCC2)c([N+](=O)[O-])c1)c1ccc(N2CCN(Cc3ccccc3-c3ccc(Cl)cc3)CC2)cc1Oc1ccccc1", "note": "[Example 91, 4-{4-[(4′-chloro-1,1′-biphenyl-2-yl)methyl]piperazin-1-yl}-N-({3-nitro-4-[(3-pyrrolidin-1-ylpropyl)amino]phenyl}sulfonyl)-2-phenoxybenzamide]", "Binding selectivity ratio (Bcl-XL Ki/Bcl-2 Ki)": 52.8}, {"smiles": "CC1(C)CCC(CN2CCN(c3ccc(C(=O)NS(=O)(=O)c4ccc(NCCCN5CCOCC5)c([N+](=O)[O-])c4)c(Oc4ccc5[nH]ncc5c4)c3)CC2)=C(c2ccc(Cl)cc2)C1", "note": "[Example 20, 4-(4-{[2-(4-chlorophenyl)-4,4-dimethylcyclohex-1-en-1-yl]methyl}piperazin-1-yl)-2-(1H-indazol-5-yloxy)-N-({4-[(3-morpholin-4-ylpropyl)amino]-3-nitrophenyl}sulfonyl)benzamide]", "Binding selectivity ratio (Bcl-XL Ki/Bcl-2 Ki)": 32.8}, {"smiles": "CC1(C)CCC(CN2CCN(c3ccc(C(=O)NS(=O)(=O)c4ccc(NC5CCS(=O)(=O)C5)c([N+](=O)[O-])c4)c(Oc4ccc5[nH]ccc5c4)c3)CC2)=C(c2ccc(Cl)cc2)C1", "note": "(centres unmarked) [EXAMPLE 276, 4-(4-{[2-(4-chlorophenyl)-4,4-dimethylcyclohex-1-en-1-yl]methyl}piperazin-1-yl)-N-({4-[(1,1-dioxidotetrahydrothien-3-yl)amino]-3-nitrophenyl}sulfonyl)-2-(1H-indol-5-yloxy)benzamide]", "Binding selectivity ratio (Bcl-XL Ki/Bcl-2 Ki)": 2650.8}, {"smiles": "CC1(C)CCC(CN2CCN(c3ccc(C(=O)NS(=O)(=O)c4ccc(NCCCN5CCNC(=O)C5)c([N+](=O)[O-])c4)c(Oc4ccc5[nH]ccc5c4)c3)CC2)=C(c2ccc(Cl)cc2)C1", "note": "[EXAMPLE 222, 4-(4-{[2-(4-chlorophenyl)-4,4-dimethylcyclohex-1-en-1-yl]methyl}piperazin-1-yl)-2-(1H-indol-5-yloxy)-N-[(3-nitro-4-{[3-(3-oxopiperazin-1-yl)propyl]amino}phenyl)sulfonyl]benzamide]", "Binding selectivity ratio (Bcl-XL Ki/Bcl-2 Ki)": 1275.3}, {"smiles": "CC1(C)CCC(CN2CCN(c3ccc(C(=O)NS(=O)(=O)c4cnc(OCC5(F)CCN(CC#N)CC5)c(Cl)c4)c(Oc4cccc5[nH]ncc45)c3)CC2)=C(c2ccc(Cl)cc2)C1", "note": "[EXAMPLE 419, N-[(5-chloro-6-{[1-(cyanomethyl)-4-fluoropiperidin-4-yl]methoxy}pyridin-3-yl)sulfonyl]-4-(4-{[2-(4-chlorophenyl)-4,4-dimethylcyclohex-1-en-1-yl]methyl}piperazin-1-yl)-2-(1H-indazol-4-yloxy)benzamide]", "Binding selectivity ratio (Bcl-XL Ki/Bcl-2 Ki)": 1071}, {"smiles": "CC1(C)CCC(CN2CCN(c3ccc(C(=O)NS(=O)(=O)c4ccc(NC5CCN(CCCF)CC5)c([N+](=O)[O-])c4)c(Oc4ccc5[nH]ccc5c4)c3)CC2)=C(c2ccc(Cl)cc2)C1", "note": "[EXAMPLE 235, 4-(4-{[2-(4-chlorophenyl)-4,4-dimethylcyclohex-1-en-1-yl]methyl}piperazin-1-yl)-N-[(4-{[1-(3-fluoropropyl)piperidin-4-yl]amino}-3-nitrophenyl)sulfonyl]-2-(1H-indol-5-yloxy)benzamide]", "Binding selectivity ratio (Bcl-XL Ki/Bcl-2 Ki)": 231.4}, {"smiles": "CC1(C)CCC(CN2CCN(c3ccc(C(=O)NS(=O)(=O)c4ccc(OCC5(C)COC5)c([N+](=O)[O-])c4)c(Oc4ccc5[nH]ccc5c4)c3)CC2)=C(c2ccc(Cl)cc2)C1", "note": "[EXAMPLE 286, 4-(4-{[2-(4-chlorophenyl)-4,4-dimethylcyclohex-1-en-1-yl]methyl}piperazin-1-yl)-2-(1H-indol-5-yloxy)-N-({4-[(3-methyloxetan-3-yl)methoxy]-3-nitrophenyl}sulfonyl)benzamide]", "Binding selectivity ratio (Bcl-XL Ki/Bcl-2 Ki)": ">1165.0"}, {"smiles": "O=C(NS(=O)(=O)c1ccc(NCC2CCOCC2)c(S(=O)(=O)C(F)(F)F)c1)c1ccc(N2CCN(Cc3ccccc3-c3ccc(Cl)cc3)CC2)cc1Oc1ccc2ccccc2c1", "note": "[Example 37, 4-{4-[(4′-chloro-1,1′-biphenyl-2-yl)methyl]piperazin-1-yl}-2-(2-naphthyloxy)-N-({4-[(tetrahydro-2H-pyran-4-ylmethyl)amino]-3-[(trifluoromethyl)sulfonyl]phenyl}sulfonyl)benzamide]", "Binding selectivity ratio (Bcl-XL Ki/Bcl-2 Ki)": 95.7}, {"smiles": "CC1CC(=O)NN=C1c1ccc(S(=O)(=O)NC(=O)c2ccc(N3CCN(Cc4ccccc4-c4ccc(Cl)cc4)CC3)cc2Oc2ccccc2)cc1", "note": "(centres unmarked) [Example 29, 4-{4-[(4′-chloro-1,1′-biphenyl-2-yl)methyl]piperazin-1-yl}-N-{[4-(4-methyl-6-oxo-1,4,5,6-tetrahydropyridazin-3-yl)phenyl]sulfonyl}-2-phenoxybenzamide]", "Binding selectivity ratio (Bcl-XL Ki/Bcl-2 Ki)": ">55.4"}]}]}
